From the supplement of paper PMC6965134
± gives the standard deviation of the averaged measurements.

Assay: TIMS collisional cross section (CCS, N2) of the lipid ion; higher = larger ion cross section
Details: ionization mode: positive, one isomer drawn

CCCCCCCCCCCCCCCCCCCC(=O)OC[C@@H](COC(=O)CCCCCCCCCCCCC)OC(=O)CCCCCCCCCCCCCCC [TG 14:0_16:0_20:0] (ion (formula + adduct): [C53H102O6+NH4] 1+)
TIMS collisional cross section (sample type: HeLa): 320.6 Å²

CCCCC/C=C\C/C=C\C/C=C\C/C=C\CCCC(=O)OC[C@@H](COC(=O)CCCCCCCCCCCCC)OC(=O)CCCCCCCCCCCCCCC [TG 14:0_16:0_20:4] (ion (formula + adduct): [C53H94O6+NH4] 1+)
TIMS collisional cross section (sample type: plasma): 314.2 Å²

CC/C=C\C/C=C\C/C=C\C/C=C\C/C=C\CCCCCC(=O)OC[C@@H](COC(=O)CCCCCCCCCCCCC)OC(=O)CCCCCCCCCCCCCCC [TG 14:0_16:0_22:5] (ion (formula + adduct): [C55H96O6+NH4] 1+)
TIMS collisional cross section (sample type: HeLa): 318 Å²

CC/C=C\C/C=C\C/C=C\C/C=C\C/C=C\C/C=C\CCC(=O)OC[C@@H](COC(=O)CCCCCCCCCCCCC)OC(=O)CCCCCCCCCCCCCCC [TG 14:0_16:0_22:6] (ion (formula + adduct): [C55H94O6+NH4] 1+)
TIMS collisional cross section (sample type: HeLa): 317.6 Å²

CCCCCC/C=C\CCCCCCCC(=O)OC[C@@H](COC(=O)CCCCCCCCCCCCC)OC(=O)CCCCCCC/C=C\CCCCCC [TG 14:0_16:1_16:1] (ion (formula + adduct): [C49H90O6+NH4] 1+)
TIMS collisional cross section (sample type: HeLa): 302.9 ± 0.28 Å² | TIMS collisional cross section (sample type: plasma): 303.5 Å²

CCCCCC/C=C\CCCCCCCC(=O)O[C@H](COC(=O)CCCCCCCCCCCCC)COC(=O)CCCCCCCCCCCCCCCC [TG 14:0_16:1_17:0] (ion (formula + adduct): [C50H94O6+NH4] 1+)
TIMS collisional cross section (sample type: HeLa): 309.6 Å² | TIMS collisional cross section (sample type: plasma): 309 Å²

CCCCCC/C=C\CCCCCCCC(=O)O[C@@H](COC(=O)CCCCCCC/C=C\CCCCCCC)COC(=O)CCCCCCCCCCCCC [TG 14:0_16:1_17:1] (ion (formula + adduct): [C50H92O6+NH4] 1+)
TIMS collisional cross section (sample type: HeLa): 307.1 Å² | TIMS collisional cross section (sample type: plasma): 307.3 Å²

CCCCCC/C=C\CCCCCCCC(=O)O[C@@H](COC(=O)CCCCCCC/C=C\CCCCCCCC)COC(=O)CCCCCCCCCCCCC [TG 14:0_16:1_18:1] (ion (formula + adduct): [C51H94O6+NH4] 1+)
TIMS collisional cross section (sample type: HeLa): 309.3 Å² | TIMS collisional cross section (sample type: Liver): 310.3 Å² | TIMS collisional cross section (sample type: plasma): 309.45 ± 0.071 Å²

CCCCC/C=C\C/C=C\CCCCCCCC(=O)OC[C@@H](COC(=O)CCCCCCCCCCCCC)OC(=O)CCCCCCC/C=C\CCCCCC [TG 14:0_16:1_18:2] (ion (formula + adduct): [C51H92O6+NH4] 1+)
TIMS collisional cross section (sample type: Liver): 306.1 Å² | TIMS collisional cross section (sample type: plasma): 307.8 ± 0.92 Å²

CCCCC/C=C\C/C=C\C/C=C\C/C=C\CCCC(=O)OC[C@@H](COC(=O)CCCCCCCCCCCCC)OC(=O)CCCCCCC/C=C\CCCCCC [TG 14:0_16:1_20:4] (ion (formula + adduct): [C53H92O6+NH4] 1+)
TIMS collisional cross section (sample type: HeLa): 311 Å²

CC/C=C\C/C=C\C/C=C\C/C=C\C/C=C\CCCC(=O)OC[C@@H](COC(=O)CCCCCCCCCCCCC)OC(=O)CCCCCCC/C=C\CCCCCC [TG 14:0_16:1_20:5] (ion (formula + adduct): [C53H90O6+NH4] 1+)
TIMS collisional cross section (sample type: HeLa): 310.6 Å²

CC/C=C\C/C=C\C/C=C\C/C=C\C/C=C\C/C=C\CCC(=O)OC[C@@H](COC(=O)CCCCCCCCCCCCC)OC(=O)CCCCCCC/C=C\CCCCCC [TG 14:0_16:1_22:6] (ion (formula + adduct): [C55H92O6+NH4] 1+)
TIMS collisional cross section (sample type: HeLa): 315 Å²

CCCCCCCC/C=C\CCCCCCCC(=O)OC[C@@H](COC(=O)CCCCCCCCCCCCC)OC(=O)CCCCCCCCCCCCCCCC [TG 14:0_17:0_18:1] (ion (formula + adduct): [C52H98O6+NH4] 1+)
TIMS collisional cross section (sample type: Liver): 315.3 Å²

CCCCCCC/C=C\CCCCCCCC(=O)O[C@@H](COC(=O)CCCCCCC/C=C\CCCCCCCC)COC(=O)CCCCCCCCCCCCC [TG 14:0_17:1_18:1] (ion (formula + adduct): [C52H96O6+NH4] 1+)
TIMS collisional cross section (sample type: HeLa): 312.9 Å² | TIMS collisional cross section (sample type: Liver): 313.6 Å²

CCCCCCCCCCCCCCCCCCCC(=O)OC[C@@H](COC(=O)CCCCCCCCCCCCC)OC(=O)CCCCCCCCCCCCCCCCC [TG 14:0_18:0_20:0] (ion (formula + adduct): [C55H106O6+NH4] 1+)
TIMS collisional cross section (sample type: HeLa): 326.4 Å² | TIMS collisional cross section (sample type: plasma): 326.1 Å²

CCCCCCCC/C=C\CCCCCCCC(=O)OC[C@@H](COC(=O)CCCCCCCCCCCCC)OC(=O)CCCCCCC/C=C\CCCCCCCC [TG 14:0_18:1_18:1] (ion (formula + adduct): [C53H98O6+NH4] 1+)
TIMS collisional cross section (sample type: Liver): 315.3 Å²

CCCCC/C=C\C/C=C\CCCCCCCC(=O)OC[C@@H](COC(=O)CCCCCCCCCCCCC)OC(=O)CCCCCCC/C=C\CCCCCCCC [TG 14:0_18:1_18:2] (ion (formula + adduct): [C53H96O6+NH4] 1+)
TIMS collisional cross section (sample type: Liver): 312.9 Å²

CCCCCCCC/C=C\CCCCCCCCCC(=O)OC[C@@H](COC(=O)CCCCCCCCCCCCC)OC(=O)CCCCCCC/C=C\CCCCCCCC [TG 14:0_18:1_20:1] (ion (formula + adduct): [C55H102O6+NH4] 1+)
TIMS collisional cross section (sample type: HeLa): 322.3 Å² | TIMS collisional cross section (sample type: Liver): 322.4 Å²

CCCCC/C=C\C/C=C\CCCCCCCCCC(=O)OC[C@@H](COC(=O)CCCCCCCCCCCCC)OC(=O)CCCCCCC/C=C\CCCCCCCC [TG 14:0_18:1_20:2] (ion (formula + adduct): [C55H100O6+NH4] 1+)
TIMS collisional cross section (sample type: HeLa): 320 Å² | TIMS collisional cross section (sample type: Liver): 320.5 Å²

CCCCC/C=C\C/C=C\C/C=C\CCCCC(=O)OC[C@@H](COC(=O)CCCCCCCCCCCCC)OC(=O)CCCCCCC/C=C\C/C=C\CCCCC [TG 14:0_18:2_18:3] (ion (formula + adduct): [C53H92O6+NH4] 1+)
TIMS collisional cross section (sample type: Liver): 308.7 Å² | TIMS collisional cross section (sample type: plasma): 309.2 Å²

CC/C=C\C/C=C\C/C=C\C/C=C\C/C=C\CCCC(=O)OC[C@@H](COC(=O)CCCCCCCCCCCCC)OC(=O)CCCCCCC/C=C\C/C=C\CCCCC [TG 14:0_18:2_20:5] (ion (formula + adduct): [C55H92O6+NH4] 1+)
TIMS collisional cross section (sample type: Liver): 312.4 Å²

CCCC/C=C\CCCCCCCC(=O)OC[C@H](COC(=O)CCCCCCC/C=C\CCCCCC)OC(=O)CCCCCCC/C=C\CCCC [TG 14:1_14:1_16:1] (ion (formula + adduct): [C47H84O6+NH4] 1+)
TIMS collisional cross section (sample type: HeLa): 294.6 Å² | TIMS collisional cross section (sample type: Liver): 291.2 Å²

CCCC/C=C\CCCCCCCC(=O)OC[C@H](COC(=O)CCCCCCC/C=C\C/C=C\CCCCC)OC(=O)CCCCCCC/C=C\CCCC [TG 14:1_14:1_18:2] (ion (formula + adduct): [C49H86O6+NH4] 1+)
TIMS collisional cross section (sample type: Liver): 296.3 Å²

CCCC/C=C\CCCCCCCC(=O)OC[C@H](COC(=O)CCCCCCC/C=C\CCCCCC)OC(=O)CCCCCCCCCCCCCC [TG 14:1_15:0_16:1] (ion (formula + adduct): [C48H88O6+NH4] 1+)
TIMS collisional cross section (sample type: HeLa): 300.7 Å² | TIMS collisional cross section (sample type: Liver): 300.3 Å² | TIMS collisional cross section (sample type: plasma): 300.5 Å²
